Test results as given in PubChem BioAssay AID588630 (NMMLSC, 2011).
Several values for one entry are separate records, joined by “and”; a condition that tells them apart may be missing. Equal entries are not always repeated. Activity calls are given as the source filed them.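 How the source made its calls: active means fitted potency at or below 10 µM with a response change of at least 30% across doses and an acceptable curve fit; inactive means the rest.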

What follows are compounds tested against GTPase HRas (Homo sapiens) (UniProt P01112) (assay: blockers of fluorescent GTP loading onto wildtype HRas – biochemical, GST-H-Ras beads, Bodipy-FL-GTP, flow cytometry, multiplex, round 2, SAR follow-up (AID 588630)). Conditions: Bodipy-FL-GTP binding.
GTPase HRas (Homo sapiens), sequence (P01112 whole entry, looked up): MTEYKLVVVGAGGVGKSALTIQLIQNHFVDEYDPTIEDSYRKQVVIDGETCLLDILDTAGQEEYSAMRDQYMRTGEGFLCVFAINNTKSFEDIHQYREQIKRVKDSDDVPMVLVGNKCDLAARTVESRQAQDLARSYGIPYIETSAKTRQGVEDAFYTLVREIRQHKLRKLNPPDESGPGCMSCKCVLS

Row | EC50 | Structure (SMILES)
1 | 359 nM | CC1(C)Cc2c(sc(NC(=S)NC(=O)c3ccccc3F)c2C(=O)O)CO1
2 | 98 nM | CC1(C)Cc2c(sc(NC(=S)NC(=O)c3ccc(F)cc3)c2C(=O)O)CO1
3 | 250 nM | COc1ccc(C(=O)NC(=S)Nc2sc3c(c2C(=O)O)CC(C)(C)OC3)cc1
4 | 37 nM | CCC1(C)Cc2c(sc(NC(=S)NC(=O)c3ccccc3)c2C(=O)O)CO1 (centres undefined)
5 | 725 nM | CC1(C)Cc2c(sc(NC(=O)NC(=O)c3ccccc3)c2C(=O)O)CO1
6 | 436 nM | CC1(C)Cc2c(sc(NC(=S)NC(=O)c3cccc(F)c3)c2C(=O)O)CO1
7 | 35 nM | CC1(C)Cc2c(sc(NC(=S)NC(=O)c3cccs3)c2C(=O)O)CO1
8 | 79 nM | CC1(C)Cc2c(sc(NC(=S)NC(=O)c3ccco3)c2C(=O)O)CO1
9 | 20 nM | CC1(C)Cc2c(sc(NC(=S)NC(=O)c3ccccc3)c2C(=O)O)CO1
10 | 140 nM | CC(C)(C)C1Cc2c(sc(NC(=S)NC(=O)c3ccccc3)c2C(=O)O)CO1 (centres undefined)
11 | 597 nM | CC1(C)Cc2c(sc(NC(=S)NC(=O)c3ccc(Br)cc3)c2C(=O)O)CO1
12 | 43 nM | CC1(C)CCc2sc(NC(=S)NC(=O)c3ccccc3)c(C(=O)O)c2C1
13 | 201 nM | CC1Cc2c(sc(NC(=S)NC(=O)c3ccccc3)c2C(=O)O)CO1 (centres undefined)
14 | 193 nM | Cc1ccc(C(=O)NC(=S)Nc2sc3c(c2C(=O)O)CC(C)(C)OC3)cc1
15 | 275 nM | COc1cccc(C(=O)NC(=S)Nc2sc3c(c2C(=O)O)CC(C)(C)OC3)c1
16 | 1780 nM | CC1(C)Cc2c(sc(NC(=S)NC(=O)c3ccccc3Br)c2C(=O)O)CO1
17 | 625 nM | CC1(C)Cc2c(sc(NC(=S)NC(=O)C3CCCCC3)c2C(=O)O)CO1
18 | 1320 nM | COc1ccccc1C(=O)NC(=S)Nc1sc2c(c1C(=O)O)CC(C)(C)OC2
19 | 106 nM and 242 nM | O=C(NC(=S)Nc1sc2c(c1C(=O)O)CCOC2)c1ccccc1
20 | 444 nM | Cc1ccccc1C(=O)NC(=S)Nc1sc2c(c1C(=O)O)CC(C)(C)OC2
21 | 31 nM | O=C(NC(=S)Nc1sc2c(c1C(=O)O)CC1(CCCC1)OC2)c1ccccc1
22 | 1390 nM | Cc1cccc(C(=O)NC(=S)Nc2sc3c(c2C(=O)O)CC(C)(C)OC3)c1

Same assay, conditions: at 100 µM (top of the series)

Row | % response (remaining GTP binding) | Structure (SMILES)
23 | inactive | CC1(C)Cc2c(sc(NC(=S)Nc3ccccc3)c2C(=O)O)CO1
24 | inactive | CC1(C)Cc2c(sc(NC(=S)NC(=O)c3cccc(Br)c3)c2C(=O)O)CO1
